In patent publication US6706740B2, “Fungicidal heterocyclic aromatic amides and their compositions, methods of use and preparation” (Dow AgroSciences LLC, priority 1999, dated 2004):
Like-named read-outs stand apart in the source and are kept apart here.

Legend:
[1] = system: Rhizoctonia solani (RHIZSO); assay: microbe, parasite or virus in culture; assay type: cell-based; settings: Rhizoctonia solani, read-out: RHIZSO in vitro Growth Inhibition
[2] = system: Erysiphe graminis—ERYSGT; assay: Powdery Mildew of Wheat, in vivo whole plant, 24 Hour Protectant; settings: Erysiphe, control of fungal infection vs untreated plants, read-out: ERYSGT in vivo 1 Day Protectant
[3] = system: Mycosphaerella graminicola (Septoria tritici—SEPTTR); assay: In vitro fungal growth inhibition, Mycosphaerella graminicola (SEPTTR); assay type: cell-based; settings: Zymoseptoria tritici, read-out: SEPTTR in vitro Growth Inhibition
[4] = system: Septoria tritici—SEPTTR; assay: Leaf Blotch of Wheat, in vivo whole plant, 24 Hour Protectant; settings: control of fungal infection vs untreated plants; for pest or weed control at 100 ppm: Zymoseptoria tritici, 24 h, read-out: SEPTTR in vivo 1 Day Protectant
[5] = system: Leptosphaeria nodorum—LEPTNO; assay: Glume Blotch of Wheat, in vivo whole plant, 24 Hour Protectant; settings: Leptosphaeria, control of fungal infection vs untreated plants, read-out: LEPTNO in vivo 1 Day Protectant
[6] = system: Stagonospora nodorum (Leptosphaeria nodorum—LEPTNO); assay: In vitro fungal growth inhibition, Stagonospora nodorum (LEPTNO); assay type: cell-based; settings: Leptosphaeria, read-out: LEPTNO in vitro Growth Inhibition
[7] = system: Magnaporthe grisea (Pyricularia oryzae—PYRIOR); assay: microbe, parasite or virus in culture; assay type: cell-based; settings: Pyricularia oryzae, read-out: PYRIOR in vitro Growth Inhibition
[8] = system: Puccinia recondita—PUCCRT; assay: Brown Rust of Wheat, in vivo whole plant, 24 Hour Protectant; settings: control of fungal infection vs untreated plants; for pest or weed control at 100 ppm: Puccinia, read-out: PUCCRT in vivo 1 Day Protectant
[9] = system: Ustilago maydis (USTIMA); assay: microbe, parasite or virus in culture; assay type: cell-based; settings: Mycosarcoma maydis, read-out: USTIMA in vitro Growth Inhibition
[10] = system: Phytophthora infestans (PHYTIN); assay: microbe, parasite or virus in culture; assay type: cell-based; settings: Phytophthora infestans, read-out: PHYTIN in vitro Growth Inhibition
[11] = system: Phytophthora infestans—PHYTIN; assay: whole plant or invertebrate; assay type: in vivo; settings: Phytophthora, in Solanum lycopersicum, 24 h, read-out: PHYTIN in vivo 1 Day Protectant
[12] = wheat plants sprayed at 100 ppm, inoculated after 24 hours
[13] = 100 ppm spray, wheat, 24 hour protectant
[14] = 100 ppm spray, 24 hour protectant, wheat

Row | SMILES | inhibition at 25 ppm [1] [%] | inhibition at 25 ppm [7] [%] | inhibition at 25 ppm [9] [%] | inhibition at 25 ppm [10] [%] | pest or weed control at 100 ppm [11] [%] | inhibition at 25 ppm ([3]; 25 ppm in growth medium) [%] | inhibition at 25 ppm ([6]; 25 ppm in growth medium) [%] | pest or weed control at 100 ppm [2, 14] [%] | pest or weed control at 100 ppm [4, 14] [%] | pest or weed control at 100 ppm [5, 14] [%] | pest or weed control at 100 ppm [8, 14] [%] | other results
1 | O=C(Nc1ccc(Oc2ccccc2C(F)(F)F)cc1)c1nc(Br)ccc1O [Compound 497] | < 80 | < 80 | < 80 | < 80 | < 25 | – | – | – | – | – | – | pest or weed control at 100 ppm [2, 12]: < 25%; inhibition at 25 ppm ([3]; 25 ppm in the growth medium): < 80%; pest or weed control at 100 ppm [4, 12]: 25 to 74%; pest or weed control at 100 ppm [5, 12]: 25 to 74%; inhibition at 25 ppm ([6]; 25 ppm in the growth medium): < 80%; pest or weed control at 100 ppm [8, 12]: 25 to 74%
2 | COc1ccnc(C(=O)N[C@H]2CO[C@H](C(C)Cc3ccc(C(C)(C)C)cc3)OC2)c1OC(C)=O (some centres unmarked) [Compound 594] | > 80 | > 80 | < 80 | < 80 | < 25 | – | – | – | – | – | – | pest or weed control at 100 ppm [2, 12]: < 25%; inhibition at 25 ppm ([3]; 25 ppm in the growth medium): > 80%; pest or weed control at 100 ppm [4, 12]: 25 to 74%; pest or weed control at 100 ppm [5, 12]: 25 to 74%; inhibition at 25 ppm ([6]; 25 ppm in the growth medium): > 80%; PUCCRT in vivo 1 Day Protectant [8, 12]: + +
3 | COc1ccnc(C(=O)Nc2ccccc2Oc2ccc(C)cc2)c1O [Compound 411] | < 80 | < 80 | < 80 | < 80 | < 25 | > 80 | > 80 | – | – | – | – | pest or weed control at 100 ppm [2, 13]: < 25%; pest or weed control at 100 ppm [4, 13]: < 25%; pest or weed control at 100 ppm [5, 13]: < 25%; pest or weed control at 100 ppm [8, 13]: < 25%
4 | CCCCC1(C)CCCC(NC(=O)c2nccc(OC)c2O)C1 (centres unmarked) [Compound 254] | < 80 | > 80 | < 80 | > 80 | < 25 | > 80 | > 80 | < 25 | 25 to 74 | 25 to 74 | 25 to 74 | –
5 | COc1ccnc(C(=O)N[C@@H]2CC3CC2C[C@@H]3COCc2cccc(C(F)(F)F)c2)c1O (some centres unmarked) [Compound 297] | > 80 | > 80 | < 80 | < 80 | < 25 | > 80 | > 80 | < 25 | 25 to 74 | 25 to 74 | < 25 | –
6 | COc1ccnc(C(=O)N[C@@H]2C[C@@H](O[Si](C)(C)C(C)(C)C)O[C@@H](C)[C@@H]2OCc2ccccc2)c1O [Compound 327] | < 80 | < 80 | < 80 | < 80 | 25 to 74 | – | – | – | – | – | – | pest or weed control at 100 ppm [2, 13]: < 25%; inhibition at 25 ppm [3]: < 80%; SEPTTR in vivo 1 Day Protectant [4, 13]: + +; pest or weed control at 100 ppm [5, 13]: 25 to 74%; inhibition at 25 ppm [6]: < 80%; pest or weed control at 100 ppm [8, 13]: < 25%
7 | COc1ccnc(C(=O)NCC2C(C=C(C)C)C2(C)C)c1O (centres unmarked) [Compound 241] | > 80 | < 80 | < 80 | > 80 | < 25 | < 80 | < 80 | < 25 | 25 to 74 | 25 to 74 | 25 to 74 | –
